Test results: US9708314B2, “Heterocyclic amide compound” (NISSAN CHEMICAL INDUSTRIES, LTD., priority 2013, dated 2017)

Columns and labels:
Experiment in all cases: Test Example 3: herbicidal effect by application to foliage (Wagner pot, water depth 0.1-0.5 cm)
Assay type in all cases: in vivo
Details in all cases: Nineteenth Table; application to foliage; application herbicide amount 320 g/ha
Leptochloa chinensis = test system: Leptochloa chinensis
How it was run: (§1)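 Plants are raised 14 days from seed in flooded-surface Wagner pots at 25–30 °C, sprayed on stems and leaves with diluted emulsion at a predetermined rate, and rated three weeks on using a 0–5 herbicidal-ratio scale (5 ≥90%).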

[1] = test system: Echinochloa crus-galli var. crus-galli
How it was run: as §1

Cyperus difformis = test system: Cyperus difformis
How it was run: as §1

SMILES	D (herbicidal effect grade) (Leptochloa chinensis)	H (herbicidal effect grade) [1]	E (herbicidal effect grade) (Cyperus difformis)
COCCN(C)c1nnc2c(C(=O)Nc3nnc(C)o3)ccc(C(F)(F)F)n12 [1-129]	5 (Herbicidal ratio of 90% or more (almost completely withered))	5 (Herbicidal ratio of 90% or more (almost completely withered))	4 (Herbicidal ratio of 70% or more and less than 90%)
CSCCNc1nnc2c(C(=O)Nc3nnc(C)o3)ccc(C(F)(F)F)n12 [1-130]	4 (Herbicidal ratio of 70% or more and less than 90%)	5 (Herbicidal ratio of 90% or more (almost completely withered))	2 (Herbicidal ratio of 20% or more and less than 40%)
Cc1nnc(NC(=O)c2ccc(C(F)(F)F)n3c(NCC(F)(F)F)nnc23)o1 [1-131]	4 (Herbicidal ratio of 70% or more and less than 90%)	4 (Herbicidal ratio of 70% or more and less than 90%)	3 (Herbicidal ratio of 40% or more and less than 70%)
Cc1nnc(NC(=O)c2ccc(C(F)(F)F)n3c(N(C)C(C)C)nnc23)o1 [1-132]	5 (Herbicidal ratio of 90% or more (almost completely withered))	5 (Herbicidal ratio of 90% or more (almost completely withered))	4 (Herbicidal ratio of 70% or more and less than 90%)
Cc1nnc(NC(=O)c2ccc(C(F)(F)F)n3c(N(C)C4CCCCC4)nnc23)o1 [1-133]	2 (Herbicidal ratio of 20% or more and less than 40%)	4 (Herbicidal ratio of 70% or more and less than 90%)	0 (Herbicidal ratio of 5% or less (almost no effect))
CCN(C)c1nnc2c(C(=O)Nc3nnc(C)o3)ccc(C(F)(F)F)n12 [1-134]	4 (Herbicidal ratio of 70% or more and less than 90%)	5 (Herbicidal ratio of 90% or more (almost completely withered))	2 (Herbicidal ratio of 20% or more and less than 40%)
CCN(CC)c1nnc2c(C(=O)Nc3nnc(C)o3)ccc(C(F)(F)F)n12 [1-135]	4 (Herbicidal ratio of 70% or more and less than 90%)	5 (Herbicidal ratio of 90% or more (almost completely withered))	2 (Herbicidal ratio of 20% or more and less than 40%)
Cc1nnc(NC(=O)c2ccc(C(F)(F)F)n3c(N4CCCC4)nnc23)o1 [1-136]	4 (Herbicidal ratio of 70% or more and less than 90%)	4 (Herbicidal ratio of 70% or more and less than 90%)	0 (Herbicidal ratio of 5% or less (almost no effect))
CCN(C)c1nnc2c(C(=O)Nc3nnco3)ccc(C(F)(F)F)n12 [1-137]	5 (Herbicidal ratio of 90% or more (almost completely withered))	5 (Herbicidal ratio of 90% or more (almost completely withered))	4 (Herbicidal ratio of 70% or more and less than 90%)
CCN(CC)c1nnc2c(C(=O)Nc3nnco3)ccc(C(F)(F)F)n12 [1-138]	5 (Herbicidal ratio of 90% or more (almost completely withered))	5 (Herbicidal ratio of 90% or more (almost completely withered))	4 (Herbicidal ratio of 70% or more and less than 90%)
O=C(Nc1nnco1)c1ccc(C(F)(F)F)n2c(N3CCCC3)nnc12 [1-139]	5 (Herbicidal ratio of 90% or more (almost completely withered))	4 (Herbicidal ratio of 70% or more and less than 90%)	5 (Herbicidal ratio of 90% or more (almost completely withered))
CC(C)c1nnc2c(C(=O)Nc3nnc(C[S+](C)[O-])o3)ccc(C(F)(F)F)n12 (stereo not drawn) [1-143]	2 (Herbicidal ratio of 20% or more and less than 40%)	4 (Herbicidal ratio of 70% or more and less than 90%)	4 (Herbicidal ratio of 70% or more and less than 90%)
O=C(Nc1nnco1)c1ccc(C(F)(F)F)n2c(C3CC3)nnc12 [1-144]	4 (Herbicidal ratio of 70% or more and less than 90%)	5 (Herbicidal ratio of 90% or more (almost completely withered))	2 (Herbicidal ratio of 20% or more and less than 40%)
CCC(CC)c1nnc2c(C(=O)Nc3nnco3)ccc(C(F)(F)F)n12 [1-145]	5 (Herbicidal ratio of 90% or more (almost completely withered))	5 (Herbicidal ratio of 90% or more (almost completely withered))	5 (Herbicidal ratio of 90% or more (almost completely withered))
CSCc1nnc2c(C(=O)Nc3nnco3)ccc(C(F)(F)F)n12 [1-146]	5 (Herbicidal ratio of 90% or more (almost completely withered))	5 (Herbicidal ratio of 90% or more (almost completely withered))	4 (Herbicidal ratio of 70% or more and less than 90%)
O=C(Nc1nnco1)c1ccc(C(F)(F)F)n2c(-c3ccc(F)cc3)nnc12 [1-147]	5 (Herbicidal ratio of 90% or more (almost completely withered))	5 (Herbicidal ratio of 90% or more (almost completely withered))	3 (Herbicidal ratio of 40% or more and less than 70%)
COc1cc(OC)cc(-c2nnc3c(C(=O)Nc4nnco4)ccc(C(F)(F)F)n23)c1 [1-148]	5 (Herbicidal ratio of 90% or more (almost completely withered))	5 (Herbicidal ratio of 90% or more (almost completely withered))	5 (Herbicidal ratio of 90% or more (almost completely withered))
COc1ccc(-c2nnc3c(C(=O)Nc4nnco4)ccc(C(F)(F)F)n23)cc1 [1-149]	5 (Herbicidal ratio of 90% or more (almost completely withered))	5 (Herbicidal ratio of 90% or more (almost completely withered))	5 (Herbicidal ratio of 90% or more (almost completely withered))
O=C(Nc1nnco1)c1ccc(C(F)(F)F)n2c(-c3ccc(Cl)nc3)nnc12 [1-150]	5 (Herbicidal ratio of 90% or more (almost completely withered))	5 (Herbicidal ratio of 90% or more (almost completely withered))	5 (Herbicidal ratio of 90% or more (almost completely withered))
COc1ccc(Cc2nnc3c(C(=O)Nc4nnco4)ccc(C(F)(F)F)n23)cc1 [1-151]	4 (Herbicidal ratio of 70% or more and less than 90%)	5 (Herbicidal ratio of 90% or more (almost completely withered))	4 (Herbicidal ratio of 70% or more and less than 90%)
C#CCN(C)c1nnc2c(C(=O)Nc3nnc(C)o3)ccc(C(F)(F)F)n12 [1-152]	5 (Herbicidal ratio of 90% or more (almost completely withered))	5 (Herbicidal ratio of 90% or more (almost completely withered))	4 (Herbicidal ratio of 70% or more and less than 90%)
Cc1nnc(NC(=O)c2ccc(C(F)(F)F)n3c(N(C)CCC#N)nnc23)o1 [1-153]	5 (Herbicidal ratio of 90% or more (almost completely withered))	5 (Herbicidal ratio of 90% or more (almost completely withered))	3 (Herbicidal ratio of 40% or more and less than 70%)
Cn1nnnc1NC(=O)c1ccc(C(F)(F)F)n2c(C3CC3)nnc12 [2-005]	5 (Herbicidal ratio of 90% or more (almost completely withered))	5 (Herbicidal ratio of 90% or more (almost completely withered))	4 (Herbicidal ratio of 70% or more and less than 90%)
CCC(CC)c1nnc2c(C(=O)Nc3nnnn3C)ccc(C(F)(F)F)n12 [2-006]	5 (Herbicidal ratio of 90% or more (almost completely withered))	5 (Herbicidal ratio of 90% or more (almost completely withered))	5 (Herbicidal ratio of 90% or more (almost completely withered))
Cn1nnnc1NC(=O)c1ccc(C(F)(F)F)n2c(-c3ccccc3)nnc12 [2-007]	5 (Herbicidal ratio of 90% or more (almost completely withered))	5 (Herbicidal ratio of 90% or more (almost completely withered))	5 (Herbicidal ratio of 90% or more (almost completely withered))
Cn1nnnc1NC(=O)c1ccc(C(F)(F)F)n2c(Cl)nnc12 [2-008]	5 (Herbicidal ratio of 90% or more (almost completely withered))	4 (Herbicidal ratio of 70% or more and less than 90%)	4 (Herbicidal ratio of 70% or more and less than 90%)
Cn1nnnc1NC(=O)c1ccc(C(F)(F)F)n2c(Br)nnc12 [2-009]	4 (Herbicidal ratio of 70% or more and less than 90%)	5 (Herbicidal ratio of 90% or more (almost completely withered))	3 (Herbicidal ratio of 40% or more and less than 70%)
COc1ccc(-c2nnc3c(C(=O)Nc4nnnn4C)ccc(C(F)(F)F)n23)cc1 [2-011]	5 (Herbicidal ratio of 90% or more (almost completely withered))	5 (Herbicidal ratio of 90% or more (almost completely withered))	5 (Herbicidal ratio of 90% or more (almost completely withered))
Cn1nnnc1NC(=O)c1ccc(C(F)(F)F)n2c(-c3ccc(Cl)cc3)nnc12 [2-012]	5 (Herbicidal ratio of 90% or more (almost completely withered))	4 (Herbicidal ratio of 70% or more and less than 90%)	5 (Herbicidal ratio of 90% or more (almost completely withered))
